Test results taken from the supplement of paper PMC10307832.

What was measured:
Test in all cases: relative viability (nuclei count vs DMSO), 5 days (fraction); higher = more cells survive
R406 + Bortezomib = compound: COc1cc(Nc2ncc(F)c(Nc3ccc4c(n3)NC(=O)C(C)(C)O4)n2)cc(OC)c1OC [R406] + CC(C)C[C@H](NC(=O)[C@H](Cc1ccccc1)NC(=O)c1cnccn1)B(O)O [Bortezomib] (partner 0.002 µM)
Method in brief: (§1)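 Dosing by pin tool came one day after lung cancer cell lines were seeded in 1536-well plates, using either one drug or a fixed anchor-drug dose plus five library-drug doses (not always all listed) in √10 steps. After 5 days, nuclei were counted on 4× images. Relative viability is treated-well nuclei count divided by vehicle-well nuclei count, and values are medians of duplicate plates.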

R406 + Linsitinib = compound: COc1cc(Nc2ncc(F)c(Nc3ccc4c(n3)NC(=O)C(C)(C)O4)n2)cc(OC)c1OC [R406] + C[C@]1(O)C[C@@H](c2nc(-c3ccc4ccc(-c5ccccc5)nc4c3)c3c(N)nccn32)C1 [Linsitinib] (partner 1 µM)
Method in brief: as §1

Daporinad + Alpelisib = compound: O=C(/C=C/c1cccnc1)NCCCCC1CCN(C(=O)c2ccccc2)CC1 [Daporinad] + Cc1nc(NC(=O)N2CCC[C@H]2C(N)=O)sc1-c1ccnc(C(C)(C)C(F)(F)F)c1 [Alpelisib] (partner 2 µM)
Method in brief: as §1

R406 + Navitoclax = compound: COc1cc(Nc2ncc(F)c(Nc3ccc4c(n3)NC(=O)C(C)(C)O4)n2)cc(OC)c1OC [R406] + CC1(C)CCC(c2ccc(Cl)cc2)=C(CN2CCN(c3ccc(C(=O)NS(=O)(=O)c4ccc(N[C@H](CCN5CCOCC5)CSc5ccccc5)c(S(=O)(=O)C(F)(F)F)c4)cc3)CC2)C1 [Navitoclax] (partner 0.5 µM)
Method in brief: as §1

Work on UMC-11 yielded a relative viability (R406 + Bortezomib; first compound 0.08 µM) of 0.78, a relative viability (R406 + Bortezomib; first compound 0.253 µM) of 0.996 and a relative viability (R406 + Bortezomib; first compound 0.8 µM) of 0.99. The relative viability (R406 + Bortezomib; first compound 2.53 µM) was 0.251, the relative viability (R406 + Bortezomib; first compound 8 µM) was 0.342 and the relative viability (R406 + Linsitinib; first compound 0.08 µM) was 1.1. It also gave a relative viability (R406 + Linsitinib; first compound 0.253 µM) of 1.1, a relative viability (R406 + Linsitinib; first compound 0.8 µM) of 1.16 and a relative viability (R406 + Linsitinib; first compound 2.53 µM) of 0.935. It also gave a relative viability (R406 + Linsitinib; first compound 8 µM) of 0.474, a relative viability (Daporinad + Alpelisib; first compound 0.0005 µM) of 0.915 and a relative viability (Daporinad + Alpelisib; first compound 0.001581 µM) of 0.979. For the same cell line, the relative viability (Daporinad + Alpelisib; first compound 0.005 µM) was 1.07, the relative viability (Daporinad + Alpelisib; first compound 0.01581 µM) was 1.1 and the relative viability (R406 + Navitoclax; first compound 0.08 µM) was 0.357. The relative viability (R406 + Navitoclax; first compound 0.253 µM) was 0.321, the relative viability (R406 + Navitoclax; first compound 0.8 µM) was 0.295 and the relative viability (R406 + Navitoclax; first compound 2.53 µM) was 0.288. It also gave a relative viability (R406 + Navitoclax; first compound 8 µM) of 0.191.
